Experimental data published in PubChem BioAssay (NCI).
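96-well plates; 48 h exposure; 5 concentrations. Endpoints by linear interpolation between flanking doses. Not reached: highest tested concentration assigned. The concentration for 50% growth inhibition is given as GI50. At the TGI there is no net growth.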

What was measured:
Assay in all cases: NCI tumour cell line growth inhibition, 48 h
[1] = test system: HOP-92 NSCLC
[2] = test system: UACC-62 melanoma
[3] = test system: UACC-257 melanoma
[4] = test system: SF-539 CNS
[5] = test system: 786-0 renal
[6] = test system: HOP-62 NSCLC
[7] = test system: BT-549 breast
[8] = test system: OVCAR-3 ovarian
[9] = test system: SK-MEL-28 melanoma
[10] = test system: TK-10 renal

SMILES | GI50 [1] | TGI [1] | GI50 [2] | TGI [2] | GI50 [3] | TGI [3] | GI50 [4] | TGI [4] | GI50 [5] | TGI [5] | GI50 [6] | TGI [6] | GI50 [7] | TGI [7] | GI50 [8] | TGI [8] | GI50 [9] | TGI [9] | GI50 [10] | TGI [10]
COc1cccc(Nc2ncnc3cc(NC(=O)CCl)ccc23)c1 | 1.7 µM | 3.4 µM | 1.13 µM | 2.48 µM | 1.41 µM | 3.02 µM | 1.52 µM | 2.92 µM | 1.55 µM | 3.1 µM | 1.48 µM | 3.06 µM | 1.23 µM | 2.69 µM | 0.768 µM | 2.22 µM | 1.65 µM | 3.24 µM | 1.2 µM | 2.52 µM
C/C=C(\N=C=S)C(=O)OC1C(COC(C)=O)OC([C@]2(O)CC(=O)C(=N)C(C(=O)O)=C2O)C(O)C1OC1CC(OC)C(O)([C@@H](C)OC(=O)[C@@H](C)CC)C(C)O1 (stereo not given in full) | – | 9.77 µM | – | 10.3 µM | – | 29.9 µM | – | 17.5 µM | – | 26.6 µM | – | 45.7 µM | – | 16.5 µM | – | 35.7 µM | – | 18.5 µM | – | 31.4 µM
COc1cc(-c2nn(-c3ccc(NC(=O)Nc4cc(C(F)(F)F)cc(C(F)(F)F)c4)cc3)cc2-c2ccncc2)ccc1Cl | 1.07 µM | 4.32 µM | 1.55 µM | 3.4 µM | 2.3 µM | 7.73 µM | 1.64 µM | 3.71 µM | 2.48 µM | 6.39 µM | 1.51 µM | 3.1 µM | 2.61 µM | 6.03 µM | 1.46 µM | 3.88 µM | 1.93 µM | 3.74 µM | 3.13 µM | 9.3 µM
O=C(/C=C/c1ccccc1)c1cccc2ccccc12 | 2.05 µM | 6.8 µM | 3.46 µM | 11.8 µM | 4.13 µM | 15.5 µM | 3.5 µM | 11 µM | 2.82 µM | 7.25 µM | 4.25 µM | 13.5 µM | 2.31 µM | 5.86 µM | 2.01 µM | 4.71 µM | 5.02 µM | 16.6 µM | 4.04 µM | 14.2 µM
Brc1ccccc2cc(-c3ccccc3)nc1-2 | – | 19.8 µM | – | 23.7 µM | – | 32 µM | – | 17.7 µM | – | 10.8 µM | – | 42.9 µM | – | 56.5 µM | – | 12.3 µM | – | 29.8 µM | – | 30.8 µM
